US9365523B2, “Imidazolyl amide compounds and uses related thereto” (priority 2011, dated 2016)

Each molecule was assayed on MeV-Alaska (assay: Antiviral activity of compound analogs against MeV-Alaska (tables 1-5)). Details: Measles morbillivirus; Table 5.
Type: cell-based, measles virus

First: Cc1ccc(NC(=O)C(C)Sc2nc3cc(C)c(C)cc3n2Cc2ccc(F)cc2)c(Cl)c1 (stereo not drawn) [Compound 129]
Second: Cc1ccc(NC(=O)CSc2nc3ccc(Br)cc3n2Cc2ccc(F)cc2)c(Cl)c1 [Compound 169]
The EC50 of the first is lower: 2.1 µM for the first, greater than 75 µM for the second. The first is the more potent here.

`Cc1ccc(N(Cc2ccc(F)cc2)C(=O)C(C)Sc2nc(-c3ccccc3)c(-c3ccccc3)n2Cc2ccc(F)cc2)c(Cl)c1` (stereo not drawn) [Compound 167] and `Cc1ccc(NC(=O)CSc2nc(-c3ccccc3)c(-c3ccccc3)n2Cc2ccc(F)cc2)c(Cl)c1` [Compound 168] cannot be ordered by EC50: greater than 75 µM for the first, greater than 75 µM for the second.

`CCOC(=O)c1ccc2[nH]c(SC(C)C(=O)Nc3ncc(Cl)cc3Cl)nc2c1` (stereo not drawn) [Compound 158] and `Cc1cc2nc(SC(C)C(=O)Nc3ncc(Cl)cc3Cl)[nH]c2cc1C` (stereo not drawn) [Compound 133] cannot be ordered by EC50: greater than 75 µM for the first, greater than 75 µM for the second.

Going from `Cc1ccc(NC(=O)C(C)Sc2nc3cccnc3n2-c2ccccc2)c(Cl)c1` (stereo not drawn) [Compound 146] to `Cc1ccc(NC(=O)CSc2nc3cccnc3n2-c2ccccc2)c(Cl)c1` [Compound 147], the EC50 rises from 1.2 µM to 16 µM (13-fold).

Going from `COc1ccc(-n2c([S+]([O-])C(C)C(=O)Nc3ccc(C)cc3Cl)nc3ccccc32)cc1` (stereo not drawn) [Compound 125] to `COc1ccc(-n2c([S+]([O-])CC(=O)Nc3ccc(C)cc3Cl)nc3ccccc32)cc1` (stereo not drawn) [Compound 165], the EC50 rises from 1.8 µM to 4.2 µM (2.3-fold).

`Cc1ccc(NC(=O)C(C)Sc2nc3ccccc3n2Cc2ccccc2)c(Cl)c1` (stereo not drawn) [Compound 148] and `Cc1ccc(NC(=O)/C=C/c2nc3ccccc3n2-c2ccccc2)c(Cl)c1` [Compound 162] cannot be ordered by EC50: greater than 75 µM for the first, greater than 75 µM for the second.

First: COc1ccc(-n2c(SC(C)C(=O)Nc3ccc(C)cc3Cl)nc3cccnc32)cc1 (stereo not drawn) [Compound 154]
Second: COc1ccc(-n2c(S(=O)(=O)C(C)C(=O)Nc3ccc(C)cc3Cl)nc3ccccc32)cc1 (stereo not drawn) [Compound 150]
The EC50 of the first is lower: 1.6 µM for the first, greater than 150 µM for the second. The first is the more potent here.

`COc1ccc(Cn2c(CCC(=O)Nc3ccc(C)cc3Cl)nc3ccccc32)cc1` [Compound 137] and `COc1ccc(-n2c(CCC(=O)Nc3ncc(C)cc3Cl)nc3ccccc32)cc1` [Compound 135] cannot be ordered by EC50: greater than 75 µM for the first, greater than 75 µM for the second.

`Cc1ccc(-n2c(SC(C)(C)C(=O)Nc3ccc(C)cc3Cl)nc3ccccc32)cc1` [Compound 145] and `Cc1ccc(NC(=O)C(C)(C)[S+]([O-])c2nc3ccccc3n2-c2ccccc2)c(Cl)c1` (stereo not drawn) [Compound 171] cannot be ordered by EC50: greater than 75 µM for the first, greater than 75 µM for the second.

`COc1ccc(-n2ccnc2SC(C)C(=O)Nc2ncc(Cl)cc2Cl)cc1` (stereo not drawn) [Compound 132] and `Cc1ccc(NC(=O)C(C)Sc2nc3ccccc3o2)c(Cl)c1` (stereo not drawn) [Compound 151] cannot be ordered by EC50: greater than 75 µM for the first, greater than 75 µM for the second.

`CCOC(=O)c1ccc2c(c1)nc(SC(C)C(=O)N(Cc1ccc(OC)cc1)c1ncc(Cl)cc1Cl)n2Cc1ccc(OC)cc1` (stereo not drawn) [Compound 134] and `Cc1cc2nc(SC(C)C(=O)N(Cc3ccc(F)cc3)c3ncc(Cl)cc3Cl)n(Cc3ccc(F)cc3)c2cc1C` (stereo not drawn) [Compound 157] cannot be ordered by EC50: greater than 75 µM for the first, greater than 75 µM for the second.

`Cc1cccc(-n2c(SCCNc3ccccc3)nc3ccccc32)c1` [Compound 172] and `Cc1ccc(NC(=O)/C=C\c2nc3ccccc3n2-c2ccccc2)c(Cl)c1` [Compound 138] cannot be ordered by EC50: greater than 75 µM for the first, greater than 50 µM for the second.

`COc1ccc(Cn2c(CC(C)NC(=O)c3ccc(Cl)cc3Cl)nc3ccccc32)cc1` (stereo not drawn) [Compound 136] and `COc1ccc(-n2c(/C=C/C(=O)Nc3ccc(C)cc3Cl)nc3ccccc32)cc1` [Compound 161] cannot be ordered by EC50: greater than 75 µM for the first, greater than 75 µM for the second.

Same assay, conditions: Table 1

`COc1ccc(-n2c(SC(C)C(=O)Nc3ncc(Cl)cc3Cl)nc3ccccc32)cc1` (stereo not drawn) [Compound 1] and `COc1ccc(-n2c(SC(C)C(=O)Nc3nc(C)c(Cl)cc3Cl)nc3ccccc32)cc1` (stereo not drawn) [Compound 43] are the same in EC50: 0.3 µM for the first, 0.3 µM for the second.

Going from `COc1ccc(-n2c(SC(C)C(=O)Nc3ccc(C)cc3C)nc3ccccc32)cc1` (stereo not drawn) [Compound 45] to `COc1ccc(-n2c(SC(C)C(=O)Nc3ccc(N)cc3C)nc3ccccc32)cc1` (stereo not drawn) [Compound 52], the EC50 rises from 1.1 µM to greater than 9.3 µM. The first is the more potent here.

Compared with `COc1ccc(-n2c(SC(C)C(=O)Nc3ccc(C)cn3)nc3ccccc32)cc1` (stereo not drawn) [Compound 24], `COc1ccc(-n2c(SC(C)C(=O)Nc3ccc(Cl)cn3)nc3ccccc32)cc1` (stereo not drawn) [Compound 38] is 23-fold higher in EC50: 0.5 µM for the first, 11.5 µM for the second. The first is the more potent here.

`COc1ccc(-n2c(SC(C)C(=O)Nc3ccc(Cl)c(C)c3)nc3ccccc32)cc1` (stereo not drawn) [Compound 40] and `COc1ccc(-n2c(SC(C)C(=O)Nc3ccc(Cl)c(Cl)c3)nc3ccccc32)cc1` (stereo not drawn) [Compound 48] are within 1.5-fold of each other in EC50: 6.7 µM for the first, 7.3 µM for the second.

Going from `COc1ccc(-n2c(SC(C)C(=O)Nc3cccc(Cl)c3)nc3ccccc32)cc1` (stereo not drawn) [Compound 14] to `COc1ccc(-n2c(SC(C)C(=O)Nc3cccc(C)c3)nc3ccccc32)cc1` (stereo not drawn) [Compound 10], the EC50 falls from 0.5 µM to 0.3 µM (1.7-fold).

`COc1ccc(-n2c(SC(C)C(=O)Nc3cc(OC)cc(OC)c3)nc3ccccc32)cc1` (stereo not drawn) [Compound 13] and `COc1ccc(-n2c(SC(C)C(=O)Nc3cc(Cl)nc(Cl)c3)nc3ccccc32)cc1` (stereo not drawn) [Compound 22] cannot be ordered by EC50: greater than 75 µM for the first, greater than 75 µM for the second.

Compared with `COc1ccc(-n2c(SC(C)C(=O)Nc3cc(C)nn3C)nc3ccccc32)cc1` (stereo not drawn) [Compound 18], `COc1ccc(-n2c(SC(C)C(=O)Nc3nc(C)cs3)nc3ccccc32)cc1` (stereo not drawn) [Compound 35] is 4-fold higher in EC50: 0.9 µM for the first, 3.6 µM for the second.

`COc1ccc(-n2c(SC(C)C(=O)Nc3nc(C)nc(C)c3Cl)nc3ccccc32)cc1` (stereo not drawn) [Compound 30] and `COc1ccc(-n2c(SC(C)C(=O)Nc3nc(Cl)cc(OC)n3)nc3ccccc32)cc1` (stereo not drawn) [Compound 27] cannot be ordered by EC50: greater than 75 µM for the first, greater than 75 µM for the second.

Going from `COc1ccc(-n2c(SC(C)C(=O)Nc3ncc(C)s3)nc3ccccc32)cc1` (stereo not drawn) [Compound 53] to `COc1ccc(-n2c(SC(C)C(=O)Nc3cc(C)on3)nc3ccccc32)cc1` (stereo not drawn) [Compound 55], the EC50 falls from greater than 150 µM to 0.49 µM.

Going from `COc1ccc(-n2c(SC(C)C(=O)Nc3ccc(C)cc3)nc3ccccc32)cc1` (stereo not drawn) [Compound 49] to `COc1ccc(-n2c(SC(C)C(=O)Nc3ccc(C)c(N)c3)nc3ccccc32)cc1` (stereo not drawn) [Compound 16], the EC50 rises from 0.7 µM to 2.3 µM (3.3-fold).

Compared with `COc1ccc(-n2c(SC(C)C(=O)Nc3ccccc3)nc3ccccc32)cc1` (stereo not drawn) [Compound 25], `COc1ccc(-n2c(SC(C)C(=O)Nc3cccc(N)c3)nc3ccccc32)cc1` (stereo not drawn) [Compound 51] is 7.8-fold higher in EC50: 0.9 µM for the first, 7 µM for the second. The first is the more potent here.

First: COc1ccc(-n2c(SC(C)C(=O)Nc3cccnc3)nc3ccccc32)cc1 (stereo not drawn) [Compound 23]
Second: COc1ccc(-n2c(SC(C)C(=O)Nc3ccncc3)nc3ccccc32)cc1 (stereo not drawn) [Compound 42]
The EC50 of the first is lower: 8.4 µM for the first, greater than 75 µM for the second. The first is the more potent here.

First: COc1ccc(-n2c(SC(C)C(=O)Nc3c(C)cccc3Cl)nc3ccccc32)cc1 (stereo not drawn) [Compound 39]
Second: COc1ccc(-n2c(SC(C)C(=O)Nc3c(Cl)cccc3Cl)nc3ccccc32)cc1 (stereo not drawn) [Compound 28]
The EC50 of the first is 1.9-fold higher: 3.9 µM for the first, 2 µM for the second. The second is the more potent here.

Same assay, conditions: Table 2

Compared with `COc1cccc(-n2c(SC(C)C(=O)Nc3ccc(C)cc3Cl)nc3ccccc32)c1` (stereo not drawn) [Compound 71], `Cc1cccc(-n2c(SC(C)C(=O)Nc3ccc(C)cc3Cl)nc3ccccc32)c1` (stereo not drawn) [Compound 75] is 6-fold lower in EC50: 0.6 µM for the first, 0.1 µM for the second. The second is the more potent here.

First: COC(=O)c1ccc(-n2c(SC(C)C(=O)Nc3ccc(C)cc3Cl)nc3ccccc32)cc1 (stereo not drawn) [Compound 99]
Second: Cc1ccc(NC(=O)C(C)Sc2nc3ccccc3n2-c2ccc(C(=O)O)cc2)c(Cl)c1 (stereo not drawn) [Compound 97]
The EC50 of the first is lower: 1.1 µM for the first, greater than 75 µM for the second. The first is the more potent here.

Going from `Cc1ccc(NC(=O)C(C)Sc2nc3ccccc3n2-c2ccccc2CN2CCN(C)CC2)c(Cl)c1` (stereo not drawn) [Compound 67] to `Cc1ccc(NC(=O)C(C)Sc2nc3ccccc3n2-c2ccc(CN3CCOCC3)cc2)c(Cl)c1` (stereo not drawn) [Compound 56], the EC50 rises from 0.18 µM to 0.32 µM (1.8-fold). The first is the more potent here.

Compared with `Cc1ccc(NC(=O)C(C)Sc2nc3ccccc3n2-c2ccc(NCCN(C)C)cc2)c(Cl)c1` (stereo not drawn) [Compound 59], `Cc1ccc(NC(=O)C(C)Sc2nc3ccccc3n2-c2ccc(N(C)C)cc2)c(Cl)c1` (stereo not drawn) [Compound 77] is 14-fold lower in EC50: 4.2 µM for the first, 0.29 µM for the second. The second is the more potent here.

First: Cc1ccc(NC(=O)C(C)Sc2nc3ccccc3n2C(=O)c2ccccc2)c(Cl)c1 (stereo not drawn) [Compound 91]
Second: Cc1ccc(NC(=O)C(C)Sc2nc3ccccc3n2S(=O)(=O)c2ccccc2)c(Cl)c1 (stereo not drawn) [Compound 90]
The EC50 of the first is higher: greater than 9.3 µM for the first, 0.04 µM for the second.

First: Cc1ccc(NC(=O)C(C)Sc2nc3ccccc3n2C2CCN(C(=O)OC(C)(C)C)CC2)c(Cl)c1 (stereo not drawn) [Compound 93]
Second: Cc1ccc(NC(=O)C(C)Sc2nc3ccccc3n2C2CCN(C)CC2)c(Cl)c1 (stereo not drawn) [Compound 94]
The EC50 of the first is 2.5-fold lower: 0.6 µM for the first, 1.5 µM for the second. The first is the more potent here.

First: Cc1ccc(NC(=O)C(C)Sc2nc3ccccc3n2-c2ccc(N)cc2)c(Cl)c1 (stereo not drawn) [Compound 78]
Second: Cc1ccc(NC(=O)C(C)Sc2nc3ccccc3n2-c2ccc(O)cc2)c(Cl)c1 (stereo not drawn) [Compound 76]
The EC50 of the first is 2.9-fold lower: 1.33 µM for the first, 3.8 µM for the second.

Going from `Cc1ccc(NC(=O)C(C)Sc2nc3ccccc3n2S(=O)(=O)C2CCCCC2)c(Cl)c1` (stereo not drawn) [Compound 89] to `Cc1ccc(NC(=O)C(C)Sc2nc3ccccc3n2C2CCCCC2)c(Cl)c1` (stereo not drawn) [Compound 88], the EC50 falls from 0.61 µM to 0.29 µM (2.1-fold). The second is the more potent here.

Going from `Cc1ccc(NC(=O)C(C)Sc2nc3ccccc3n2-c2ccc(OCC#N)cc2)c(Cl)c1` (stereo not drawn) [Compound 57] to `COc1ccc(-n2c(SC(C)C(=O)Nc3ccc(C)cc3Cl)nc3ccccc32)cc1` (stereo not drawn) [Compound 86], the EC50 falls from 0.7 µM to 0.17 µM (4.1-fold).

Going from `COc1ccc(Cn2c(SC(C)C(=O)Nc3ccc(C)cc3Cl)nc3ccccc32)cc1` (stereo not drawn) [Compound 85] to `Cc1ccc(NC(=O)C(C)Sc2nc3ccccc3n2-c2ccc(CO)cc2)c(Cl)c1` (stereo not drawn) [Compound 81], the EC50 rises from 0.4 µM to 3.91 µM (9.8-fold). The first is the more potent here.

`CC(=O)NCCOc1ccc(-n2c(SC(C)C(=O)Nc3ccc(C)cc3Cl)nc3ccccc32)cc1` (stereo not drawn) [Compound 61] showed an EC50 greater than 10 µM.

Same assay, conditions: Table 3

Going from `CC(Sc1nc2ccccc2n1-c1ccc(F)cc1)C(=O)Nc1ncc(Cl)cc1Cl` (stereo not drawn) [Compound 101] to `Cc1cnc(NC(=O)C(C)Sc2nc3ccccc3n2-c2ccc(F)cc2)c(Cl)c1` (stereo not drawn) [Compound 116], the EC50 rises from 0.3 µM to 0.8 µM (2.7-fold).

Compared with `COc1ccc(Cn2c(SC(C)C(=O)Nc3ncc(C)cc3Cl)nc3ccccc32)cc1` (stereo not drawn) [Compound 107], `COc1ccc(Cn2c(SC(C)C(=O)Nc3ccc(Cl)cc3Cl)nc3ccccc32)cc1` (stereo not drawn) [Compound 117] is 2.1-fold higher in EC50: 0.8 µM for the first, 1.7 µM for the second. The first is the more potent here.

First: Cc1cnc(NC(=O)C(C)Sc2nc3ccccc3n2-c2ccccc2)c(Cl)c1 (stereo not drawn) [Compound 109]
Second: COc1cc(OC)cc(-n2c(SC(C)C(=O)Nc3ncc(C)cc3Cl)nc3ccccc32)c1 (stereo not drawn) [Compound 118]
The EC50 of the first is 6.2-fold lower: 0.13 µM for the first, 0.8 µM for the second. The first is the more potent here.

`CC(Sc1nc2ccccc2n1C)C(=O)Nc1ncc(Cl)cc1Cl` (stereo not drawn) [Compound 113] and `CCOc1ccc(-n2c(SC(C)C(=O)Nc3ccc([N+](=O)[O-])cc3C)nc3ccccc32)cc1` (stereo not drawn) [Compound 110] cannot be ordered by EC50: greater than 10 µM for the first, greater than 9.3 µM for the second.
